Laboratory results published in patent US6057359A, “Spontaneously dispersible concentrates comprising esters of baccatin-III compounds having antitumor and antiviral activity” (Marigen S.A., priority 1997, dated 2000).

Tests used:
[1] = test system: LEUKEMIA DAUDI-LINE; experiment: Vitality/proliferation test (Tritium), leukemia Daudi-line; assay type: cell-based, human; conditions: controls 23'090 cpm
Description: (§1) 4.0 Comparative assays with human tumor cell lines
(§2) VITALITY TEST/1%-MARIGENOL-CONCENTRATE
(§3) 1 × 10^4 cells per well
(§4) Proliferation test (Tritium: 1 μCi/well H^+)

[2] = test system: LEUKEMIA K 562; experiment: Vitality/proliferation test (Tritium), leukemia K 562; assay type: cell-based, human; conditions: controls 50'037 cpm
Description: as §1, §2, §3, §4

[3] = cited from earlier work
[4] = test system: Py6 cells (Virus transformed 3T3 mouse-fibroblasts); experiment: Test of cell toxicity / cytotoxicity of MARIGENOL concentrates on Py6 cells (plaque assay, serial dilution); assay type: cell-based; conditions: for in dilution active up to 1: (microemulsion ME 1:100): dilution of ME 1:100, given in Mio.
Description: A biological assay system using microtiter plates and serial dilutions has been developed. Batches of 10^4 tumour cells per ml were set up in culture medium RPMI 1640 and inactivated with 10% of fetal calf serum (GIBCO); they are spread at a density low enough to enable them to grow during the assay, in non-confluent monolayers. Samples are added after 6 to 24 hours, with 100 μl per row, to which 100 μl of medium are added in the first well. Half of this mixture is withdrawn, transferred into the next well and again treated with 100 μl of medium, etc.
[…] They are then stained and fixed using 0.1% crystal violet (Fluka, Buchs) in a solution of 70% of methanol, 1% of formaldehyde and 29% of water. The samples are evaluated under the microscope, magnification 300×. The greatest cytotoxic dilution is determined. The samples can also be evaluated quantitatively by means of scanning and absorption measurement in a spectrophotometer.
N.B.: On the subject of the eternalized Py6-cells cf.: "Biochemistry", Coordinating Editor Geoffrey L. Zubay, Addison-Wesley Publishing Company, 1983, p.1079.

[5] = test system: Herpes-Virus (Herpes Simplex, HSV); experiment: Antiviral/virucidal efficacy against HSV, plaque reduction in VERO cells; assay type: cell-based; conditions: compared to simple medium, 2880 min
Description: (§5) The antiviral/virucidal efficacy against HSV of an aqueous microemulsion prepared with appropriate MARIGENOL®-concentrates was assessed on a confluent monolayer culture of VERO cells (i.e. "African green monkey kidney cells"). The host cells were pretreated during 3 h at 4° C. with an inventive microemulsion or with culture medium alone and then infected with HSV at a constant dose of 10^4 plaque forming units (PFU). After virus absorption during 1 h, and subsequent addition of 2% methylcellulose in order to limit virus spreading, cells were cultured in MEM medium+2% foetal calf serum for 48 h, then fixed and stained with 1% crystal violet in methanol. The reduction of viral titre was expressed as percent reduction of plaques of lysis observed in pre-treated cells, compared to controls.
Infection was also detected by IFA at 24 h after inoculation, using a Mab specific for a glycoprotein common to HSV-1/HSV-2 (clone FQ 12, Argene Biosoft, BIOLINE, Torino).
The following test substances were assessed as concentrates in aqueous dilution (starting with a microemulsion 1:100): […]

[6] = Micellar size by dynamic light scattering; assay type: physicochemical; conditions: aqueous emulsion 1:100 of 1%-concentrate; DLS
Description: [Measurement conducted with QLS=quasi-elastic, dynamic light scattering; tests performed at the Federal Institute for Technology, Zurich, Institute for Polymers (Prof. Dr. Pier Luigi LUISI and Prof. Dr. Peter SCHURTENBERGER)]. See: "Mode-selective dynamic light scattering; theory versus experimental realization", Thomas Gisler, et al., Applied Optics/Vol. 34, No. 18/Jun. 20, 1995, pp. 3546-3553.
Measurement conducted with aqueous emulsions 1:100 (CMC-marginal value for a homogenous spreading of the surfactants), prepared from the 1%-concentrates. Method: dynamic light scattering (DLS) in 3 angular positions each (60°, 90° and 120°), and with 10 single measurements taken each time. The instrument is a specially equipped "Fiberoptic Spectrometer" of the Institute for Polymers. Description of the method and the instrument, see: "Mode-selective dynamic light scattering: theory versus experimental realization". Thomas Gisler et al., Applied Optics/Vol. 34, No. 18/Jun. 20, 1995.

[7] = test system: VERO cells; experiment: Cell lysis in VERO cell layers; assay type: cell-based, African green monkey; conditions: dilution 1:1'000; plaque reduction table
Description: as §5

[8] = test system: human CMV-strain AD169; experiment: Virucidal efficacy on human cytomegalovirus (immunofluorescence); assay type: cell-based; conditions: control 15'000
Description: The assay was conducted with human, embryonic Lung Fibroblasts as host cells, which were then infected with the human CMV-strain AD169.
The virus strain was incubated during 4 h at +4° C. with varying concentrations of the test substance C16:0 -β-Sitosteryl ester, formulated as a 1%-concentrate and diluted to aqueous microemulsions 10^-3, 10^-4 and 10^-5. It was subsequently inoculated on monolayers of human embryonic lung fibroblasts (which are very susceptible to the CMV-virus). These host cells were grown in shell vials in minimal essential medium (MEM, GIBCO, Life Technologies), containing 10% fetal calf serum. A confluent culture was raised with 120,000 cells per shell-vial. The infection was effected by means of centrifugation during 45 minutes at 1'500 rpm at RT. Thereafter, the injection-suspension was eliminated and 1 ml medium MEM+2% FCS was added (same medium as before). The infected cell culture was maintained during 20 h at 37° C., in a 5%-CO2 -atmosphere. […]
Quantification of the virucidal effect was measured with an immunofluorescence assay. […]
This is followed by 3 washing operations with PBS and a second incubation with the fluorescence-marked antibody IgG goat anti-IgG mouse. […]
The number of IEA-positive cells was recorded. The nuclei which were positive against the CMV-specific antigen were counted by means of the fluorescence microscope, magnification 25×, in aqueous phase.

[9] = test system: HIV isolates from patients (strains 21/4 and 4/5); experiment: Effect on HIV infectivity, residual HIV titre (direct antiviral efficacy); assay type: cell-based; conditions: mean titre of 2 strains, 3 h, +4° C.
Description: Aliquote amounts of two HIV isolates from patients (strains 21/4 and 4/5) resuspended in complete RPMI medium at a titre of 300 CCID50 /ml were incubated during 3 hours, +4° C. with MARIGENOL®-concentrate, in the form of an aqueous microemulsion, at concentrations ranging from 10^-2 to 10^-5 in complete medium, as well as with ("empty") carrier concentrate and with medium alone as controls.
After pre-incubation, residual HIV titre was assessed by the CCID50 method (Cell-culture infecting dose 50%). Briefly, serial twofold dilutions were prepared from each of the six virus suspensions, and 200 μl of each dilution were incubated for 90 minutes with MT-4 cell pellets prepared as stated before (see 7.1). At the end of incubation, pellets were brought to initial cell concentration by adding appropriate amounts of complete RPMI medium to each tube, whose content was then distributed into 8 wells of a flat-bottom microtitre plate in 200 μl volumes, each vertical row coresponding to a dilution. After 5 days of incubation, cell viability was assessed by the MTT test as stated above, and the HIV titre was expressed as the reciprocal of that dilution which infects 4 out of 8 wells (50%) in a row. A well was considered infected when its O.D. readout at 550 nm was lower than the average readout of 8 control wells minus 2.8 times the standard error of the mean (lower 95% confidence limit).

[10] = test system: HIV strain III B; experiment: Protective effect on MT-4 host cells against HIV infection (MTT); assay type: cell-based; conditions: stock ultramicroemulsions, 10^-3 to 10^-4, concentration not stated
Description: MT4-cells (an immortalized T-cell line highly sensitive to HIV cytopathoge-nic effect, CPE) of a 24 h-old culture were suspended at a concentration of 2×10^5 /ml, divided into 1.2 ml aliquotes in polypropylene tubes, and pelleted by centrifugation. Pellets were either infected with 200 μl of a stock solution of HIV strain III B (Titre: 600 CCID50 /ml), or mock-infected with plain medium, for 90 min. at 37° C, upon which 1 ml of plain medium was added to each tube, restoring initial cell concentration and bringing HIV concentration to 100 CCID50 /ml. [CCID50 /ml=50% cell culture infective dose].
100 μl volumes of the MARIGENOL®-Concentrates to be tested, diluted to aqueous microemulsions 10^-3 and then further diluted from 10^-3 to […] in RPMI 1640 medium, or of plain medium, were added in triplicate to flat-bottom, 96-well microtitre plates. […]
Cultures were incubated at 37° C., in a humified atmosphere of 5% CO2 +95% air. Five days after infection, 100 μl of supernatant were removed from each well, and cell viability was assessed by reduction of a methyl-tetrazolium salt (MTT, Sigma, 25 μl/well of a 5 mg/ml solution) in a 2-h incubation test, followed by solubilization with 100 μl DMSO/well and photometric readout of the optical density at 550 nm. Residual cell viability was expressed as percent difference from HIV CPE-control cultures mean readout, considered as zero.

CC(=O)O[C@H]1C(=O)[C@@]2(C)[C@H]([C@H](OC(=O)c3ccccc3)[C@]3(O)C[C@H](O)C(C)=C1C3(C)C)[C@]1(OC(C)=O)CO[C@@H]1C[C@@H]2O [BACCATIN III-A.S., Baccatin-III]
Proliferation test % ([1]; 10^-3): 3.0% | Proliferation test cpm ([1]; 10^-3): 708 cpm | Proliferation test % ([1]; 10^-4): 3.4% | Proliferation test cpm ([1]; 10^-4): 795 cpm | Proliferation test % ([1]; 10^-5): 61.4% | Proliferation test % ([2]; 10^-3): 1.3% | Proliferation test cpm ([2]; 10^-3): 680 cpm | Proliferation test % ([2]; 10^-4): 1.5% | Proliferation test cpm ([2]; 10^-4): 757 cpm | Proliferation test % ([2]; 10^-5): 6.3% | solubility in water [3]: very low | in dilution active up to 1: (calculated on active substance content, A.S.) ([4]; 24 h exposure): 12.8 Mio. | in dilution active up to 1: (calculated on active substance content, A.S.) ([4]; 48 h exposure): 12.8 Mio. | in dilution active up to 1: (calculated on active substance content, A.S.) ([4]; 72 h exposure): 100 Mio. | in dilution active up to 1: (microemulsion ME 1:100) ([4]; 72 h exposure): 1 Mio.

C=CCCCCCCCCC(=O)Oc1cc(OC(=O)CCCCCCCCC=C)c2c(=O)c(OC(=O)CCCCCCCCC=C)c(-c3ccc(OC(=O)CCCCCCCCC=C)c(OC(=O)CCCCCCCCC=C)c3)oc2c1 [QUERCETIN-PENTA-UNDECENOATE, Quercetin-penta-10-undecenoate]
Percent reduction of plaques in VERO cell monolayers ([5]; dilution 1:10'000): 48% | Percent reduction of plaques in VERO cell monolayers ([5]; dilution 1:100'000): 0% | MICELLAR SIZE in nm [6]: 2-3 nm | in dilution active up to 1: (calculated on active substance content, A.S.) ([4]; 24 h exposure): 25.6 Mio. | in dilution active up to 1: (calculated on active substance content, A.S.) ([4]; 48 h exposure): 100 Mio. | in dilution active up to 1: (microemulsion ME 1:100) ([4]; 48 h exposure): 1 Mio. | in dilution active up to 1: (calculated on active substance content, A.S.) ([4]; 72 h exposure): 200 Mio. | in dilution active up to 1: (microemulsion ME 1:100) ([4]; 72 h exposure): 2 Mio. | Cell-Lysis [7]: Cell-Lysis

CCCCCCCC/C=C\CCCCCCCC(=O)Oc1ccc2c(c1)CC[C@@H]1[C@@H]2CC[C@]2(C)[C@@H](OC(=O)CCCCCCC/C=C\CCCCCCCC)CC[C@@H]12 [β-ESTRADIOL-DI-OLEATE]
MICELLAR SIZE in nm [6]: 2-3 nm

CCCCCCCCCCCCCCCC(=O)O[C@H]1CC[C@@]2(C)C(=CC[C@H]3[C@@H]4CC[C@H]([C@H](C)CC[C@@H](CC)C(C)C)[C@@]4(C)CC[C@@H]32)C1 [β-SITOSTERYL-PALMITATE, 3β-Stigmast-5-en-3-palmitate]
Percent reduction of plaques in VERO cell monolayers ([5]; dilution 1:10'000): 24% | Percent reduction of plaques in VERO cell monolayers ([5]; dilution 1:100'000): 0% | Number of the positive nuclei (anti P-72 antigens) ([8]; microemulsion 1:1'000 = 1'000 ppm concentrate): 0 | Number of the positive nuclei (anti P-72 antigens) ([8]; microemulsion 1:10'000 = 100 ppm concentrate): 2 | RESIDUAL HIV TITRE (CCID50) ([9]; concentrate 1'000 ppm, active substance 10 ppm): 2 CCID50 | RESIDUAL HIV TITRE (CCID50) ([9]; concentrate 10 ppm, active substance 0.1 ppm): 120 CCID50 | RESIDUAL HIV TITRE (CCID50) ([9]; concentrate 50 ppm, active substance 0.5 ppm): 76 CCID50 | RESIDUAL HIV TITRE (CCID50) ([9]; concentrate 100 ppm, active substance 1 ppm): 50 CCID50 | Cell-Lysis [7]: Cell-Lysis

CCCCCC(=O)O[C@H]1CC[C@@]2(C)C(=CC[C@H]3[C@@H]4CC[C@H]([C@H](C)CC[C@@H](CC)C(C)C)[C@@]4(C)CC[C@@H]32)C1 [β-Sitosteryl-Caproylate]
protective action on MT-4 cells against HIV [10]: very remarkable results | protective action on MT-4 cells against HIV ([10]; listed as β-Sitosterypl-Caproylate): Similar, though less remarkable results
